Assay results: patent US20250270209A1 (INTERLINE THERAPEUTICS, INC., priority 2022, published 2025)

Assays:
[1] = biological target: LRRK2 wild type enzyme (Homo sapiens, UniProt Q5S007); test: Biochemical Assay: LRRK2 TR-FRET (LanthaScreen) kinase assay with LRRKtide substrate; conditions: LRRK2 Inhibition, Table 8
Method: 10 mM compound solution was prepared in DMSO. An 11-point, 3-fold dilution was performed, with highest concentration at 10 μM. A 10 mM compound DMSO solution was added to Labcyte LDV plate and the compound concentration of source plate was 10 mM. The 1st compound concentration of Inter plate(Labcyte 384 well PP plate) was 4.938×10^−1 mM which was prepared by transferring 1.5 μL of 10 mM compound from source plate to 28.9 μL DMSO. The 2nd compound concentration of Inter plate was 1.829×10^−2 mM which was prepared by transferring 60 nL of 10 mM compound from source plate to 32.7 μL DMSO. The 3rd compound concentration of Inter plate was 6.774×10^−4 mM which was prepared by transferring 2.5 nL of 10 mM compound from source plate to 36.9 μL DMSO. 100 nL of reference compound was dispensed in column 1 for low control wells and 100 nL of DMSO in column 24 for high control wells. Compounds were dispensed to column 2 to 23 of assay plate and backfilled with DMSO to a total volume of 100 nL.
A 2X LRRK2 enzyme solution (final concentration 3 nM) was prepared in assay buffer (Tris-HCl pH8.0:50 mM, MgCl2: 5 mM, EDTA: 1 mM, Brij-35:0.01%, 2 mM DTT). A 2× substrate solution was prepared: LRRK2 tide substrate (final concentration 400 nM) and ATP (final concentration 25 μM) in assay buffer. 5 μL 2× LRRK2 enzyme solution was dispensed to each well in assay plate by Multidrop. Assay plate was spun at 1,000 rpm for 1 min and incubated for 15 min at 23° C. 5 μL 2× ATP/LRRKtide solution was dispensed to each well in assay plate by Multidrop. Assay plate was spun at 1,000 rpm for 1 min and incubated for 120 min at 23° C.
(§1) A 2× detection solution was prepared: Tb-pERM (pLRRKtide) antibody (final concentration 0.25 nM) and EDTA (final concentration 10 mM) in TR-FRET dilution buffer. 10 μL 2× detection solution was dispensed to each well in assay plate to stop kinase reaction by Multidrop. Assay plate was spun at 1,000 rpm for 1 min and incubate for 30 min at 23° C. Assay plate was then read on Envision configured for LanthaScreen® TR-FRET. pS935 LRRK2 Cell Assay

[2] = biological target: T1, wild type LRRK2 overexpressed in recombinant HEK-293T cells (Homo sapiens, UniProt Q5S007); test: pS935 LRRK2 Cell Assay (HTRF, phospho-LRRK2 Ser935); type: cell-based; conditions: LRRK2 Inhibition, Table 8, 2 hours compound incubation
T1 construct: host or cells: HEK293T (transient transfection with pCMV-LRRK2 WT plasmid)
Method: as §1
The following protocol describes an in-vitro method for measuring phosphorylation at Ser935 on wild type LRRK2 overexpressed in recombinant HEK-293T cells. The method is based on HTRF technology, which combines Fluorescence Resonance Energy Transfer (FRET) with Time-Resolved measurement (TR). Phospho-LRRK2 (Ser935) is detected in a sandwich assay format using two different specific antibodies, one labelled with Eu3+-Cryptate (donor) and the second with d2(acceptor).When the fluorophores are in close proximity, excitation of the donor with a light source (flash lamp) stimulates FRET to the acceptor, which in turn fluoresces at a specific wavelength (665 nm). The fluorescence emission at 615 nm from the donor is also measured to allow ratiometric reduction of data. The specific signal is proportional to phospho-LRRK2 (Ser935).
Plasmid transient transfection: DMEM medium, FBS, DPBS, Trans-IT, OPTI-MEM reagents were allowed to warm to room temperature. HEK293T cells were cultured in DMEM +10% FBS complete medium in T150 flasks till around 80% confluency before transfection. Then cells were washed with 10 mL PBS and detached with 3 mL 0.25% typinsin. 30×10E6 HEK293T cells were seeded in DMEM +10% FBS complete medium to a 15 cm dish.
DNA, TransIT-LT1, OPTI-MEM complex were prepared: […] OPTI-MEM was added to a 15 mL cone tube, then […] plasmid was added to OPTI-MEM and mixed, followed by addition of 60 μL TransIT-LT1 to the plasmid OPTI-MEM mixture and mixing. The resulting mixture was incubated for 15 minutes.
The above plasmid, DNA and OPTI-MEM mixture was added dropwise to the 15 cm dish, ensuring the drops were evenly distributed. The culture dish was gently rocked back and forth and from left to right to evenly distribute the complex. The tranfected dish was incubated for 24 hours at 37° C., and 5% CO2.
Transfected HEK293T was collected in the 15 cm dish. Media was aspirated from tissue culture dish, and washed by dispensing 10 mL 1× DPBS into 15 cm dish. 1× DPBS was aspirated and 3 mL trypsin was dispensed to 15 cm dish. The dish was incubated with trypsin at room temperature for 3 min until the cells were detached. 10 mL of DMEM +10% FBS medium were added to 15 cm dish and triturated to ensure homogenous cell suspensions.
Homogenous cell suspensions were transferred to a 50 mL tube, and centrifuged for 5 minutes at 1,000 rmp/min. The supernatant was aspirated and resuspended with 20 mL complete medium. 1 mL of cell suspension was transferred for cell counting. The cell suspension was diluted to 2× 10E5 cells/ml. 50 μL cell suspensions were added to a 384-well plate. The plate was quick spun at 800 rpm for 1 minute, then incubate overnight at 37° C., 5% CO2.
Compound dispensing: compound was diluted (10 mM DMSO stock solution) and added to assay plate (top concentration: 10 μM, 3 fold serial dilution, 9 doses) with duplicates by Tecan liquid handler. The DMSO concentration of each well was normalized to 0.2%. Plates were quick spun at 1,000 rpm for 1 minute. Plates were incubated at 37° C., 5% CO2 for 2 hours.
1× lysis buffer solution supplemented with blocking reagent was prepared (e.g. 1 mL lysis buffer 4X+3 mL water+40 μL stock blocking reagent 100X). Antibodies working solution was prepared by diluting 40-fold d2 and Cryptate antibodies with detection buffer(e.g. 1520 μL detection buffer+40 μL d2-antibody stock solution+[…] Cryptate-antibody stock solution).
After 2 hours incubation, cell plates were taken out from the incubator. […]

T1 sequence (Q5S007 whole entry): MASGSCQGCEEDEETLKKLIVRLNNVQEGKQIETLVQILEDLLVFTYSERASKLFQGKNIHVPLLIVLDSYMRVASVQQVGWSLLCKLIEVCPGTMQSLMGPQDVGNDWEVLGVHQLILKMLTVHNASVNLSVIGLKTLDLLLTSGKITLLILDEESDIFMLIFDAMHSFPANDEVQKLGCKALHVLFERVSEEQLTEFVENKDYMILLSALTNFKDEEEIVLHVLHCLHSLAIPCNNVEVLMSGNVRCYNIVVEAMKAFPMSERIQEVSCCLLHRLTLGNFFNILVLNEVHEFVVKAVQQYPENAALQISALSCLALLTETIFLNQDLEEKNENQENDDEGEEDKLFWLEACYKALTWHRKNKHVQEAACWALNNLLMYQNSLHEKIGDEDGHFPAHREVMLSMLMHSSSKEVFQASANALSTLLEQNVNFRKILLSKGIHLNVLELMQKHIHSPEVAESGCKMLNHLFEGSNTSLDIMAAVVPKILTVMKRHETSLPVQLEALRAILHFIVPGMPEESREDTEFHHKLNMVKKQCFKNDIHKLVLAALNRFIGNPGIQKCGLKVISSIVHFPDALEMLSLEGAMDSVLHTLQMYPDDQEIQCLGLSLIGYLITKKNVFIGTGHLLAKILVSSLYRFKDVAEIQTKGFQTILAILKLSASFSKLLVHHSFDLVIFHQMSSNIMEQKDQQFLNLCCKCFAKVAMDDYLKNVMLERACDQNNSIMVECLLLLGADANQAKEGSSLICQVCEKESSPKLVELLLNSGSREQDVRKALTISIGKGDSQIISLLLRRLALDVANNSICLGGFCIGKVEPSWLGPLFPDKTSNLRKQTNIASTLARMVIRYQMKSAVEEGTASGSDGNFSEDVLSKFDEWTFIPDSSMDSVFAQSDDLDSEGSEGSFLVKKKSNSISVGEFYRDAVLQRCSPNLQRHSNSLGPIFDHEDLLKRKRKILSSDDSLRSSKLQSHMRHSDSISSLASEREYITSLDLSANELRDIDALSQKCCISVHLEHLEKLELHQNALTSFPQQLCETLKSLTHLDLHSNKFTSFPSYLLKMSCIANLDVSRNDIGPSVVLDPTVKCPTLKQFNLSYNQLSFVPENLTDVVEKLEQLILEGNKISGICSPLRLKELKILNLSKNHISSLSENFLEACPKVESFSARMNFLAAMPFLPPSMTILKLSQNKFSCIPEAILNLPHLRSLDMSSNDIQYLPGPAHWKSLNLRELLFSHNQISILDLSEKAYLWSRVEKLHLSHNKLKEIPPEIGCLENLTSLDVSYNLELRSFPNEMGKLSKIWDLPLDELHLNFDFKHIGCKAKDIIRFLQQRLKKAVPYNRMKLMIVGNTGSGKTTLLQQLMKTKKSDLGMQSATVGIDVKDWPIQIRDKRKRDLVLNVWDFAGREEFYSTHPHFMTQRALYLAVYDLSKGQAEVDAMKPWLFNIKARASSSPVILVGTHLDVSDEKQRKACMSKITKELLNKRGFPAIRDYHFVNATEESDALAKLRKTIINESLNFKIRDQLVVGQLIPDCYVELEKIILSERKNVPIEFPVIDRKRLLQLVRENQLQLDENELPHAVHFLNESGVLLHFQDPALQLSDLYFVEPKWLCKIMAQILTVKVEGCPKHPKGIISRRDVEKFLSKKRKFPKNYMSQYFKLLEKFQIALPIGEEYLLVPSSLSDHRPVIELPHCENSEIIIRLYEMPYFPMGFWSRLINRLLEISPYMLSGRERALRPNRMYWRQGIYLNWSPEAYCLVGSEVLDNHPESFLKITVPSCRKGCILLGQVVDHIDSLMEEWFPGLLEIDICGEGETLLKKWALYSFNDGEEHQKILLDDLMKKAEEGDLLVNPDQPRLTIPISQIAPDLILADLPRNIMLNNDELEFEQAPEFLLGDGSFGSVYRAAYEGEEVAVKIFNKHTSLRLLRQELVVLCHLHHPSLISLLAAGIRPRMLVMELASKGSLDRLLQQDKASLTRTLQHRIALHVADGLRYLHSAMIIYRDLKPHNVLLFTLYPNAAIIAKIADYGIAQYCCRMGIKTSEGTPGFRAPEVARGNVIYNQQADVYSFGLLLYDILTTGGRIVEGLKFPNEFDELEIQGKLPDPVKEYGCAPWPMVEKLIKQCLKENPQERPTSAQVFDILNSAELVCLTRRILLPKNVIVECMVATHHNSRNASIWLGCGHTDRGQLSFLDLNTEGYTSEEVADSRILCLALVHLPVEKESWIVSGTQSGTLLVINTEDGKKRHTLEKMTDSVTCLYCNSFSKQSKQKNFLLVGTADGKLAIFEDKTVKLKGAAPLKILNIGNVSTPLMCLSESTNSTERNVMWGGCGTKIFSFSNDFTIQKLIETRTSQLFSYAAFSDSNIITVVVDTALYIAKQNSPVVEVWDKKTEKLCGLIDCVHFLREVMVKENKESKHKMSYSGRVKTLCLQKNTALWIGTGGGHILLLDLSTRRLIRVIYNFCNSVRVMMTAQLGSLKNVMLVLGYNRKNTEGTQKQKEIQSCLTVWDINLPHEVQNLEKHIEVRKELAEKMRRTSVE
LRRK2 wild type enzyme, sequence (Q5S007 whole entry): as above

**Q.** How did the IC50 [1] turn out when C[C@@H]1C[C@H](n2c(CNC(=O)CC3CC3)nc3cnc4ccc(C#N)cc4c32)CCO1 [Compound 18, N-({8-cyano-1-[(2R,4R)-2-methyloxan-4-yl]-1H-imidazo[4,5-c]quinolin-2-yl}methyl)-2-cyclopropylacetamide] was run?
**A.** 2.58 nM

**Q.** What about the IC50 [2] of the same molecule?
**A.** 182 nM

**Q.** For C[C@@H]1C[C@H](n2c(CC(=O)Nc3ccc(=O)n(C)c3)nc3cnc4ccc(C#N)cc4c32)CCO1 [Compound 281, N-(1-methyl-6-oxo-1,6-dihydro-3-pyridyl){3-[(2R,4R)-2-methyltetrahydro-2H-pyran-4-yl]-12-cyano-3,5,8-triazatricyclo[7.4.0.0^2,6]trideca-1,4,6,8,10,12-hexaen-4-yl}acetamide], which IC50 [1] is on record?
**A.** 0.394 nM

**Q.** What about the IC50 [2] of the same molecule?
**A.** 336 nM

**Q.** CN1CC(n2c(C3CC(=O)N(CC4CC4)C3)nc3cnc4ccc(C#N)cc4c32)CCC1=O (single isomer, unassigned) [Compound 140] was tested. Which IC50 [1] did it give?
**A.** 42.1 nM

**Q.** What about the IC50 [2] of the same molecule?
**A.** > 10000 nM

**Q.** COCCCNC(=O)Cc1nc2cnc3ccc(C#N)cc3c2n1[C@@H]1CCO[C@H](C)C1 [Compound 166, 2-{8-cyano-1-[(2R,4R)-2-methyloxan-4-yl]-1H-imidazo[4,5-c]quinolin-2-yl}-N-(3-methoxypropyl)acetamide] was tested. Which IC50 [1] did it give?
**A.** 0.364 nM

**Q.** What about the IC50 [2] of the same molecule?
**A.** 12 nM

**Q.** Which results are given for C[C@@H]1C[C@H](n2c(CC(=O)NC3CCCC3)nc3cnc4ccc(C#N)cc4c32)CCO1 [Compound 336, N-cyclopentyl{3-[(2R,4R)-2-methyltetrahydro-2H-pyran-4-yl]-12-cyano-3,5,8-triazatricyclo[7.4.0.0^2,6]trideca-1(9),2(6),4,7,10,12-hexaen-4-yl}acetamide]?
**A.** IC50 [1]: 0.732 nM; IC50 [2]: 10.2 nM

**Q.** What does the source list for Cc1nocc1NC(=O)Cc1nc2cnc3ccc(C#N)cc3c2n1[C@@H]1CCO[C@H](C)C1 [Compound 238, N-(3-methyl-4-isoxazolyl){3-[(2R,4R)-2-methyltetrahydro-2H-pyran-4-yl]-12-cyano-3,5,8-triazatricyclo[7.4.0.0^2,6]trideca-1,4,6,8,10,12-hexaen-4-yl}acetamide]?
**A.** IC50 [1]: 0.415 nM; IC50 [2]: 7.15 nM

**Q.** Which results are given for C[C@@H]1C[C@H](n2c(CC(=O)Nc3nccnc3Cl)nc3cnc4ccc(C#N)cc4c32)CCO1 [Compound 308, N-(3-chloro-2-pyrazinyl){3-[(2R,4R)-2-methyltetrahydro-2H-pyran-4-yl]-12-cyano-3,5,8-triazatricyclo[7.4.0.0^2,6]trideca-1(9),2(6),4,7,10,12-hexaen-4-yl}acetamide]?
**A.** IC50 [1]: 1.25 nM; IC50 [2]: 18.6 nM

**Q.** For C[C@@H]1C[C@H](n2c(CC(=O)Nc3cnn(C)c3)nc3cnc4ccc(Cl)cc4c32)CCO1 [Compound 193, 2-{8-chloro-1-[(2R,4R)-2-methyloxan-4-yl]-1H-imidazo[4,5-c]quinolin-2-yl}-N-(1-methyl-1H-pyrazol-4-yl)acetamide], which IC50 [1] is on record?
**A.** 0.261 nM

**Q.** And the IC50 [2]?
**A.** 5.59 nM

**Q.** How did the IC50 [1] turn out when C[C@@H]1C[C@H](n2c([C@@H]3CCN(S(=O)(=O)c4cnn(C)c4)C3)nc3cnc4ccc(C#N)cc4c32)CCO1 [Compound 128, 2-[(3R)-1-[(1-methyl-1H-pyrazol-4-yl)sulfonyl]pyrrolidin-3-yl]-1-[(2R,4R)-2-methyloxan-4-yl]-1H-imidazo[4,5-c]quinoline-8-carbonitrile] was run?
**A.** 10 nM

**Q.** C[C@@H]1C[C@H](n2c(C3CC(=O)N(Cc4cccnc4)C3)nc3cnc4ccc(C#N)cc4c32)CCO1 (single isomer, unassigned) [Compound 31, 1-[(2R,4R)-2-methyloxan-4-yl]-2-[(3R*)-5-oxo-1-[(pyridin-3-yl)methyl]pyrrolidin-3-yl]-1H-imidazo[4,5-c]quinoline-8-carbonitrile] was tested. Which IC50 [1] did it give?
**A.** 26.4 nM

**Q.** For Cn1cc(-n2c(C3CC(=O)N(CC4CC4)C3)nc3cnc4ccc(C#N)cc4c32)ccc1=O (stereo not shown) [Compound 137, 2-[1-(cyclopropylmethyl)-5-oxopyrrolidin-3-yl]-1-(1-methyl-6-oxo-1,6-dihydropyridin-3-yl)-1H-imidazo[4,5-c]quinoline-8-carbonitrile], which IC50 [1] is on record?
**A.** > 1000 nM

**Q.** C[C@@H]1C[C@H](n2c(CC(=O)NCC3CC3)nc3cnc4ccc(C(=O)N(C)C)cc4c32)CCO1 [Compound 144, 2-{[(cyclopropylmethyl)carbamoyl]methyl}-N,N-dimethyl-1-[(2R,4R)-2-methyloxan-4-yl]-1H-imidazo[4,5-c]quinoline-8-carboxamide] was tested. Which IC50 [1] did it give?
**A.** > 1000 nM

**Q.** C[C@@H]1C[C@H](n2c([C@@H]3CCN(C(=O)c4cccnn4)C3)nc3cnc4ccc(C#N)cc4c32)CCO1 [Compound 129, 1-[(2R,4R)-2-methyloxan-4-yl]-2-[(3R)-1-(pyridazine-3-carbonyl)pyrrolidin-3-yl]-1H-imidazo[4,5-c]quinoline-8-carbonitrile] was tested. Which IC50 [1] did it give?
**A.** 2.47 nM

**Q.** C[C@@H]1C[C@H](n2c([C@@H]3CCN(C(=O)c4cnn(C)c4)C3)nc3cnc4ccc(C#N)cc4c32)CCO1 [Compound 130, 2-[(3R)-1-(1-methyl-1H-pyrazole-4-carbonyl)pyrrolidin-3-yl]-1-[(2R,4R)-2-methyloxan-4-yl]-1H-imidazo[4,5-c]quinoline-8-carbonitrile] was tested. Which IC50 [1] did it give?
**A.** 6.71 nM

**Q.** With Cn1cc(-n2c(CC(=O)NCC3CC3)nc3cnc4ccc(C#N)cc4c32)ccc1=O [Compound 92, 2-[8-cyano-1-(1-methyl-6-oxo-1,6-dihydropyridin-3-yl)-1H-imidazo[4,5-c]quinolin-2-yl]-N-(cyclopropylmethyl)acetamide] as the molecule, how does the IC50 [1] read?
**A.** > 1000 nM

**Q.** C[C@@H]1C[C@H](n2c(CN3CCC(C(=O)O)CC3)nc3cnc4ccc(C#N)cc4c32)CCO1 [Compound 76, 1-({8-cyano-1-[(2R,4R)-2-methyloxan-4-yl]-1H-imidazo[4,5-c]quinolin-2-yl}methyl)piperidine-4-carboxylic acid] was tested. Which IC50 [1] did it give?
**A.** 109 nM

**Q.** How did the IC50 [1] turn out when Cc1cc(-n2c(CC(=O)NCC3CC3)nc3cnc4ccc(C#N)cc4c32)ccn1 [Compound 138, 2-[8-cyano-1-(2-methylpyridin-4-yl)-1H-imidazo[4,5-c]quinolin-2-yl]-N-(cyclopropylmethyl)acetamide] was run?
**A.** > 1000 nM
